{
  "source": "patent US20240368565A1",
  "about": "“COMPLEMENTATION-BASED TAGS AND REPORTERS FOR DUAL-MODALITY LABELING” (Promega Corporation, priority 2023, published 2024)",
  "key": {"[1]": {"biological_target": "HaloTag[22-297](M2F + K140E)-12xGly/Ser-LgBiT-3xGly/Ser-6xHis (Rhodococcus rhodochrous, UniProt P0A3G2, A155T/A167V/A172T/A224E/C128F/C176G/D78G/E257K/H272N/K175M/K195N/L47V/L88M/N227D/S58T/T264A/Y273L/Y87F)", "assay": "biochemical", "type": "binding", "conditions": "biotinylated peptide on streptavidin probes, PBST, 25° C."}, "[2]": {"biological_target": "HaloTag[22-297](M2F + F148M + V177E)-12xGly/Ser-LgBiT-3xGly/Ser-6xHis (Rhodococcus rhodochrous, UniProt P0A3G2, A155T/A167V/A172T/A224E/C128F/C176G/D78G/E160K/E257K/F168M/H272N/K175M/K195N/L47V/L88M/N227D/S58T/T264A/V197E/Y273L/Y87F)", "sequence (P0A3G2 23-290 with tags or gaps with the stated changes)": "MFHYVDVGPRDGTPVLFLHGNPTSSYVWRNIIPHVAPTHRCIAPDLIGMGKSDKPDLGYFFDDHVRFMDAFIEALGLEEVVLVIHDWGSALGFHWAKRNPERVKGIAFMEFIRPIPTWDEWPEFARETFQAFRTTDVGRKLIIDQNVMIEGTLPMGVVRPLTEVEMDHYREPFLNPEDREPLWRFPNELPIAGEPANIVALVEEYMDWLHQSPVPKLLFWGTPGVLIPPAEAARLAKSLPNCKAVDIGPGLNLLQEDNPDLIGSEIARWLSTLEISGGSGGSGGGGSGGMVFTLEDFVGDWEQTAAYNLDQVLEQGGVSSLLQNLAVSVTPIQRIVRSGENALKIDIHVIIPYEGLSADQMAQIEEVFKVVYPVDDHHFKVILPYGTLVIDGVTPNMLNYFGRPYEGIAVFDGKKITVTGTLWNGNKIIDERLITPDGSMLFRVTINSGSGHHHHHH", "assay": "biochemical", "type": "binding"}, "LgBiT-6xHis": {"biological_target": "LgBiT-6xHis (Oplophorus gracilirostris, UniProt Q9GV45, A31E/A60N/A81I/D135N/F58L/F95D/G42A/G62A/G78A/G94A/G98A/H120P/I103V/I117V/I134L/K70R/L176M/L54V/L73R/L99Q/M102E/N171T/P142E/Q151K/Q38E/Q45L/V71I/Y165I)", "assay": "biochemical", "type": "binding"}, "[3]": {"biological_target": "HaloTag[22-297](M2F)-12xGly/Ser-LgBiT-3xGly/Ser-6xHis (Rhodococcus rhodochrous, UniProt P0A3G2, A155T/A167V/A172T/A224E/C128F/C176G/D78G/E160K/E257K/H272N/K175M/K195N/L47V/L88M/N227D/S58T/T264A/Y273L/Y87F)", "sequence (P0A3G2 23-290 with tags or gaps with the stated changes)": "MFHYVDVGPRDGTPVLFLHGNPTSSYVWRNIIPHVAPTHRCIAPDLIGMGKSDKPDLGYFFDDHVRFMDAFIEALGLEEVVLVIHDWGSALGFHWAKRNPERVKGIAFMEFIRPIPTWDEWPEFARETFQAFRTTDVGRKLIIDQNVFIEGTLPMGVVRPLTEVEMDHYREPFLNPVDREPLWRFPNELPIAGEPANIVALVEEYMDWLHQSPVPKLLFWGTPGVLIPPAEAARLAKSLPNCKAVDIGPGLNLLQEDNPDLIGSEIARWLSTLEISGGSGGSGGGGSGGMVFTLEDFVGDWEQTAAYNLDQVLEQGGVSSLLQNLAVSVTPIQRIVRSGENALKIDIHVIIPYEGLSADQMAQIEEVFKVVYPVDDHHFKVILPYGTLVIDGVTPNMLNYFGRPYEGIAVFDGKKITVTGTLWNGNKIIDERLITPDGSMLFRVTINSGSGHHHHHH", "assay": "biochemical", "type": "binding"}, "[4]": {"biological_target": "HaloTag[22-297](M2F + D53G + V177E)-12xGly/Ser-LgBiT-3xGly/Ser-6xHis (Rhodococcus rhodochrous, UniProt P0A3G2, A155T/A167V/A172T/A224E/C128F/C176G/D73G/D78G/E160K/E257K/H272N/K175M/K195N/L47V/L88M/N227D/S58T/T264A/V197E/Y273L/Y87F)", "sequence (P0A3G2 23-290 with tags or gaps with the stated changes)": "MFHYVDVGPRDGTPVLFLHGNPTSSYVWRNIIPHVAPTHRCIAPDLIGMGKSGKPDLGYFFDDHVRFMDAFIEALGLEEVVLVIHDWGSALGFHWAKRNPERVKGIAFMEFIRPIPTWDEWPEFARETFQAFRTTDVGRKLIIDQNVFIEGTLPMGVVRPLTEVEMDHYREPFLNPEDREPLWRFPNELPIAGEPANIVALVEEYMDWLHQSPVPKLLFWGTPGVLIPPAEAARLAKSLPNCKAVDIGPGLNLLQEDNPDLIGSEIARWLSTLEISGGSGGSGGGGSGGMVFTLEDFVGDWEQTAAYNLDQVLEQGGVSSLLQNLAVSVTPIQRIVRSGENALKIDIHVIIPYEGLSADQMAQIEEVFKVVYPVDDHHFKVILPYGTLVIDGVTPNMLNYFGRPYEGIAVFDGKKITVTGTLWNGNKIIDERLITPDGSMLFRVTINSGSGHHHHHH", "assay": "biochemical", "type": "binding"}, "[5]": {"biological_target": "HaloTag[22-297](M2F + D53G + K140E)-12xGly/Ser-LgBiT-3xGly/Ser-6xHis (Rhodococcus rhodochrous, UniProt P0A3G2, A155T/A167V/A172T/A224E/C128F/C176G/D73G/D78G/E257K/H272N/K175M/K195N/L47V/L88M/N227D/S58T/T264A/Y273L/Y87F)", "sequence (P0A3G2 23-290 with tags or gaps with the stated changes)": "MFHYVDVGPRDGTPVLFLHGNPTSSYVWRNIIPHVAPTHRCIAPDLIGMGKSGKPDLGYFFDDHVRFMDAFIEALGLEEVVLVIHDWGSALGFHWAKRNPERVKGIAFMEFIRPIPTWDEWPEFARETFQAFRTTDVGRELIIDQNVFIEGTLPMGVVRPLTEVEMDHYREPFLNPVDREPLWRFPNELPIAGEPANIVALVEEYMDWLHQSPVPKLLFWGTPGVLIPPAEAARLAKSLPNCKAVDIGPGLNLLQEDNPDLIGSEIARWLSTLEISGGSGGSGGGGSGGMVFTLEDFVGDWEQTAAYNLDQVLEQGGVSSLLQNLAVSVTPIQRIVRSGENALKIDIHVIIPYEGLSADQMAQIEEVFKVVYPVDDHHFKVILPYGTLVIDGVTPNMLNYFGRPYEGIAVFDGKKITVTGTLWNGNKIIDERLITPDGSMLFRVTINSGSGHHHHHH", "assay": "biochemical", "type": "binding"}, "[6]": {"biological_target": "HaloTag[22-297](M2F)-12×Gly/Ser-LgBiT-6×His (Rhodococcus rhodochrous, UniProt P0A3G2, A155T/A167V/A172T/A224E/C128F/C176G/D78G/E160K/E257K/H272N/K175M/K195N/L47V/L88M/N227D/S58T/T264A/Y273L/Y87F)", "type": "biochemical", "conditions": "purified reporter, 30 minutes at 4° C., furimazine"}, "[7]": {"conditions": "biotinylated peptide on streptavidin probes, PBST, 25° C."}},
  "note": "Several values for one entry are separate records, joined by “and”; a condition that tells them apart may be missing. Equal values may be shown once. Peptide text beside a SMILES is read from it. * marks the point of attachment. Biotin = O=C1N[C@H]2[C@H](CS[C@H]2CCCCC(=O)*)N1",
  "data": [
    {"molecule": "CC[C@H](C)[C@H](NC(=O)[C@H](CCCCN)NC(=O)[C@H](CCCCN)NC(=O)[C@H](Cc1ccccc1)NC(=O)[C@H](CC(C)C)NC(=O)[C@H](CCCNC(=N)N)NC(=O)[C@H](Cc1c[nH]c2ccccc12)NC(=O)CNC(=O)[C@H](CO)NC(=O)[C@@H](NC(=O)[C@H](CO)NC(=O)[C@@H](NC(=O)CNC(=O)[C@H](CO)NC(=O)CNC(=O)CNC(=O)CNC(=O)[C@H](CC(C)C)NC(=O)[C@@H](NC(=O)[C@H](CCC(=O)O)NC(=O)[C@@H](NC(=O)[C@H](Cc1ccc(O)cc1)NC(=O)[C@H](Cc1c[nH]cn1)NC(=O)[C@@H]1CCCN1C(=O)[C@H](CC(=O)O)NC(=O)[C@H](Cc1ccccc1)NC(=O)[C@@H]1CCCN1C(=O)[C@H](Cc1ccccc1)NC(=O)CNC(=O)[C@@H](NC(=O)[C@H](CCCCN)NC(=O)[C@@H](NC(=O)[C@H](CCC(=O)O)NC(=O)CCCC[C@@H]1SC[C@@H]2NC(=O)N[C@@H]21)[C@@H](C)CC)[C@@H](C)O)C(C)C)C(C)C)C(C)C)C(C)C)C(=O)N[C@@H](CO)C(=O)O", "note": "[HaloTag[3-19](G3K)-4xGly/Ser-VSHiBiT] (Biotin-EIKTGFPFDPHYVEVLGGGSGVSVSGWRLFKKIS-OH)", "values": [
      {"measurement": "Kd", "setting": "[1]", "result": 0.264, "unit": "nM"},
      {"measurement": "Kd", "setting": "[2]", "result": 0.102, "unit": "nM"}
    ]},
    {"molecule": "EIGTGFPFRPHYVEVRGGGSGVSVSGWRLFKKIS [HaloTag[3-19](D9R + L16R)-4xGS-VSHiBiT]", "values": [
      {"measurement": "Koff", "setting": "[1]", "result": "NA (dissociation that is too slow for the instrument to measure (limit 10^6 l/s))"},
      {"measurement": "Kon", "setting": "[1]", "result": 134000, "unit": "M⁻¹ s⁻¹"},
      {"measurement": "Koff", "setting": "LgBiT-6xHis; [7]", "result": "NA (dissociation that is too slow for the instrument to measure (limit 10^6 l/s))"},
      {"measurement": "Kon", "setting": "LgBiT-6xHis; [7]", "result": 64800, "unit": "M⁻¹ s⁻¹"}
    ]},
    {"molecule": "CC[C@H](C)[C@H](NC(=O)[C@H](CCC(=O)O)NC(=O)CCCC[C@@H]1SC[C@@H]2NC(=O)N[C@@H]21)C(=O)NCC(=O)N[C@H](C(=O)N[C@@H](CCCNC(=N)N)C(=O)N[C@@H](Cc1ccccc1)C(=O)N1CCC[C@H]1C(=O)N[C@@H](Cc1ccccc1)C(=O)N[C@@H](CC(=O)O)C(=O)N1CCC[C@H]1C(=O)N[C@@H](Cc1c[nH]cn1)C(=O)N[C@@H](Cc1ccc(O)cc1)C(=O)N[C@H](C(=O)N[C@@H](CCC(=O)O)C(=O)N[C@H](C(=O)N[C@@H](CC(C)C)C(=O)NCC(=O)NCC(=O)NCC(=O)N[C@@H](CO)C(=O)NCC(=O)N[C@H](C(=O)N[C@@H](CO)C(=O)N[C@H](C(=O)N[C@@H](CO)C(=O)NCC(=O)N[C@@H](Cc1c[nH]c2ccccc12)C(=O)N[C@@H](CCCNC(=N)N)C(=O)N[C@@H](CC(C)C)C(=O)N[C@@H](Cc1ccccc1)C(=O)N[C@@H](CCCCN)C(=O)N[C@@H](CCCCN)C(=O)N[C@H](C(=O)N[C@@H](CO)C(=O)O)[C@@H](C)CC)C(C)C)C(C)C)C(C)C)C(C)C)[C@@H](C)O", "note": "[HaloTag[3-19](G5R)-4xGly/Ser-VSHiBiT] (Biotin-EIGTRFPFDPHYVEVLGGGSGVSVSGWRLFKKIS-OH)", "values": [
      {"measurement": "Kd", "setting": "[2]", "result": 0.485, "unit": "nM"}
    ]},
    {"molecule": "CC[C@H](C)[C@H](NC(=O)[C@H](CCCCN)NC(=O)[C@H](CCCCN)NC(=O)[C@H](Cc1ccccc1)NC(=O)[C@H](CC(C)C)NC(=O)[C@H](CCCNC(=N)N)NC(=O)[C@H](Cc1c[nH]c2ccccc12)NC(=O)CNC(=O)[C@H](CO)NC(=O)[C@@H](NC(=O)[C@H](CO)NC(=O)[C@@H](NC(=O)CNC(=O)[C@H](CO)NC(=O)CNC(=O)CNC(=O)CNC(=O)[C@H](CC(C)C)NC(=O)[C@@H](NC(=O)[C@H](CCC(=O)O)NC(=O)[C@@H](NC(=O)[C@H](Cc1ccc(O)cc1)NC(=O)[C@H](Cc1c[nH]cn1)NC(=O)[C@@H]1CCCN1C(=O)[C@H](CC(=O)O)NC(=O)[C@H](Cc1ccccc1)NC(=O)[C@@H]1CCCN1C(=O)[C@H](Cc1ccccc1)NC(=O)CNC(=O)[C@@H](NC(=O)CNC(=O)[C@H](CCCNC(=N)N)NC(=O)[C@H](CCC(=O)O)NC(=O)CCCC[C@@H]1SC[C@@H]2NC(=O)N[C@@H]21)[C@@H](C)O)C(C)C)C(C)C)C(C)C)C(C)C)C(=O)N[C@@H](CO)C(=O)O", "note": "[HaloTag[3-19](I2R)-4xGly/Ser-VSHiBiT] (Biotin-ERGTGFPFDPHYVEVLGGGSGVSVSGWRLFKKIS-OH)", "values": [
      {"measurement": "Kd", "setting": "[3]", "result": 1.61, "unit": "nM"},
      {"measurement": "Kd", "setting": "[1]", "result": "0.684 nM and 0.466 nM"},
      {"measurement": "Kd", "setting": "[4]", "result": 0.669, "unit": "nM"},
      {"measurement": "Kd", "setting": "[2]", "result": 0.509, "unit": "nM"},
      {"measurement": "Kd", "setting": "[5]", "result": 0.576, "unit": "nM"}
    ]},
    {"molecule": "CC[C@H](C)[C@H](NC(=O)[C@H](CCCCN)NC(=O)[C@H](CCCCN)NC(=O)[C@H](Cc1ccccc1)NC(=O)[C@H](CC(C)C)NC(=O)[C@H](CCCNC(=N)N)NC(=O)[C@H](Cc1c[nH]c2ccccc12)NC(=O)CNC(=O)[C@H](CO)NC(=O)[C@@H](NC(=O)[C@H](CO)NC(=O)[C@@H](NC(=O)CNC(=O)[C@H](CO)NC(=O)CNC(=O)CNC(=O)CNC(=O)[C@H](CC(C)C)NC(=O)[C@@H](NC(=O)[C@H](CCC(=O)O)NC(=O)[C@@H](NC(=O)[C@H](Cc1ccc(O)cc1)NC(=O)[C@H](Cc1c[nH]cn1)NC(=O)[C@@H]1CCCN1C(=O)[C@H](CC(=O)O)NC(=O)[C@H](Cc1ccccc1)NC(=O)[C@@H]1CCCN1C(=O)[C@H](Cc1ccccc1)NC(=O)[C@H](CCCNC(=N)N)NC(=O)[C@@H](NC(=O)CNC(=O)[C@H](CCCNC(=N)N)NC(=O)[C@H](CCC(=O)O)NC(=O)CCCC[C@@H]1SC[C@@H]2NC(=O)N[C@@H]21)[C@@H](C)O)C(C)C)C(C)C)C(C)C)C(C)C)C(=O)N[C@@H](CO)C(=O)O", "note": "[HaloTag[3-19](I2R + G5R)-4xGS-VSHiBiT] (Biotin-ERGTRFPFDPHYVEVLGGGSGVSVSGWRLFKKIS-OH)", "values": [
      {"measurement": "Kd", "setting": "LgBiT-6xHis", "result": 0.11, "unit": "nM"}
    ]},
    {"molecule": "KFNDQWNYRANFLKIRRVSVSGWRLFKKIS [Peptide 1061]", "values": [
      {"measurement": "Complementing the reporter to enhance luminescence signal", "setting": "[6]", "result": "still functional"}
    ]}
  ]
}
